This is an account of results in the supplement of paper PMC10307832.

Assay in all cases: relative viability (nuclei count vs DMSO), 5 days (fraction); higher = more cells survive
Compound in experiment [1]: Cc1ccc2nc(NCCN)c3ncc(C)n3c2c1 + CCNC(=O)c1noc(-c2cc(C(C)C)c(O)cc2O)c1-c1ccc(CN2CCOCC2)cc1 [Luminespib] (partner 0.01 µM)
The procedure, abridged: (§1)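 Lung cancer cell lines in 1536-well plates got either a single drug or a fixed anchor-drug dose together with five library-drug doses (not always all listed) in √10 steps, by pin tool, on the day after seeding. Nuclei were counted after 5 days, and relative viability is the treated-to-vehicle ratio of nuclei counts. Values are medians of duplicate plates.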

Compound in experiment [2]: Cc1ccc2nc(NCCN)c3ncc(C)n3c2c1 + N=C(N)NC(=N)NCCc1ccccc1 [Phenformin] (partner 250 µM)
An outline of the steps: as §1

Compound in experiment [3]: Cc1ccc2nc(NCCN)c3ncc(C)n3c2c1 + Nc1ncn([C@H]2C[C@H](O)[C@@H](CO)O2)c(=O)n1 [Decitabine] (partner 2 µM)
The procedure, abridged: as §1

Compound in the experiment “Salubrinal + Linsitinib”: O=C(/C=C/c1ccccc1)NC(NC(=S)Nc1cccc2cccnc12)C(Cl)(Cl)Cl [Salubrinal] + C[C@]1(O)C[C@@H](c2nc(-c3ccc4ccc(-c5ccccc5)nc4c3)c3c(N)nccn32)C1 [Linsitinib] (partner 1 µM)
An outline of the steps:
as §1

In the case of NCI-H1651, the relative viability in experiment [1] (first compound 0.04 µM) was 0.801; in experiment [1] (first compound 0.1265 µM) it was 0.805; in experiment [1] (first compound 0.4 µM) it was 0.997; in experiment [1] (first compound 1.265 µM), 0.836; in experiment [1] (first compound 4 µM) it was 0.839; in experiment [2] (first compound 0.04 µM) it was 0.351. The relative viability came to 0.273 in experiment [2] (first compound 0.1265 µM); 0.315 in experiment [2] (first compound 0.4 µM); 0.358 in experiment [2] (first compound 1.265 µM); 0.352 in experiment [2] (first compound 4 µM); 0.628 in experiment [3] (first compound 0.04 µM); 0.664 in experiment [3] (first compound 0.1265 µM). Further, the relative viability in experiment [3] (first compound 0.4 µM) stood at 0.69; in experiment [3] (first compound 1.265 µM), 0.637; in experiment [3] (first compound 4 µM), 0.518; with Salubrinal + Linsitinib (first compound 0.08 µM), 1.09; with Salubrinal + Linsitinib (first compound 0.253 µM), 0.692; with Salubrinal + Linsitinib (first compound 0.8 µM), 1.06. The relative viability in the experiment with Salubrinal + Linsitinib (first compound 8 µM) is 0.968.

With NCI-H1666, the relative viability in experiment [1] (first compound 0.04 µM) is 0.963; in experiment [1] (first compound 0.1265 µM), 0.994; in experiment [1] (first compound 0.4 µM) it was 1.07; in experiment [1] (first compound 1.265 µM) it was 0.915; in experiment [1] (first compound 4 µM), 1.01; in experiment [2] (first compound 0.04 µM), 0.574. For the same cell line, the relative viability in experiment [2] (first compound 0.1265 µM) turned out to be 0.573; in experiment [2] (first compound 0.4 µM) it was 0.521; in experiment [2] (first compound 1.265 µM), 0.495; in experiment [2] (first compound 4 µM) it was 0.535; in experiment [3] (first compound 0.04 µM), 0.753; in experiment [3] (first compound 0.1265 µM), 0.719. Further, the relative viability in experiment [3] (first compound 0.4 µM) turned out to be 0.692; in experiment [3] (first compound 1.265 µM) it was 0.792; in experiment [3] (first compound 4 µM), 0.647; with Salubrinal + Linsitinib (first compound 0.08 µM), 0.78; with Salubrinal + Linsitinib (first compound 0.253 µM) it was 0.777; with Salubrinal + Linsitinib (first compound 0.8 µM), 0.869. The results for the relative viability with Salubrinal + Linsitinib (first compound 2.53 µM) and with Salubrinal + Linsitinib (first compound 8 µM) were 0.735 and 0.797, respectively.

Take NCI-H1734: the relative viability in experiment [1] (first compound 0.04 µM) came out at 0.217; in experiment [1] (first compound 0.1265 µM), 0.251; in experiment [1] (first compound 0.4 µM), 0.197; in experiment [1] (first compound 1.265 µM), 0.184; in experiment [1] (first compound 4 µM) it was 0.176; in experiment [2] (first compound 0.04 µM), 0.425. In addition, the relative viability amounted to 0.417 in experiment [2] (first compound 0.1265 µM); 0.355 in experiment [2] (first compound 0.4 µM); 0.38 in experiment [2] (first compound 1.265 µM); 0.389 in experiment [2] (first compound 4 µM); 0.464 in experiment [3] (first compound 0.04 µM); 0.5 in experiment [3] (first compound 0.1265 µM). The relative viability in experiment [3] (first compound 0.4 µM) turned out to be 0.458; in experiment [3] (first compound 1.265 µM), 0.501; in experiment [3] (first compound 4 µM), 0.511; in the experiment with Salubrinal + Linsitinib (first compound 0.08 µM), 0.931; with Salubrinal + Linsitinib (first compound 0.253 µM), 0.858; in the experiment with Salubrinal + Linsitinib (first compound 0.8 µM), 1.02. Further, the relative viability in the experiment with Salubrinal + Linsitinib (first compound 2.53 µM) came to 0.976; in the experiment with Salubrinal + Linsitinib (first compound 8 µM) it was 0.826.

For the cell line NCI-H1755, the relative viability in experiment [1] (first compound 0.04 µM) turned out to be 0.42; in experiment [1] (first compound 0.1265 µM), 0.359; in experiment [1] (first compound 0.4 µM), 0.339; in experiment [1] (first compound 1.265 µM) it was 0.288; in experiment [1] (first compound 4 µM), 0.48; in experiment [2] (first compound 0.04 µM) it was 0.661. Besides, the relative viability came to 0.665 in experiment [2] (first compound 0.1265 µM); 0.581 in experiment [2] (first compound 0.4 µM); 0.625 in experiment [2] (first compound 1.265 µM); 0.583 in experiment [2] (first compound 4 µM); 0.716 in experiment [3] (first compound 0.04 µM); 0.764 in experiment [3] (first compound 0.1265 µM). The relative viability in experiment [3] (first compound 0.4 µM) is 0.681; in experiment [3] (first compound 1.265 µM), 0.7; in experiment [3] (first compound 4 µM), 0.723; in the experiment with Salubrinal + Linsitinib (first compound 0.08 µM), 1.05; with Salubrinal + Linsitinib (first compound 0.253 µM) it was 0.869; in the experiment with Salubrinal + Linsitinib (first compound 0.8 µM), 1.03. For the same cell line, the relative viability was 1 with Salubrinal + Linsitinib (first compound 2.53 µM) and 0.947 with Salubrinal + Linsitinib (first compound 8 µM).

As to NCI-H1792, the relative viability in experiment [1] (first compound 0.04 µM) amounted to 0.49; in experiment [1] (first compound 0.1265 µM), 0.434; in experiment [1] (first compound 1.265 µM), 0.396; in experiment [1] (first compound 4 µM), 0.432; in experiment [2] (first compound 0.04 µM) it was 0.308; in experiment [2] (first compound 0.1265 µM) it was 0.436. The relative viability in experiment [2] (first compound 1.265 µM) amounted to 0.411; in experiment [2] (first compound 4 µM), 0.358; in experiment [3] (first compound 0.04 µM) it was 0.614; in experiment [3] (first compound 0.1265 µM), 0.553; in experiment [3] (first compound 1.265 µM) it was 0.511; in experiment [3] (first compound 4 µM), 0.461. For the same cell line, the relative viability in the experiment with Salubrinal + Linsitinib (first compound 0.08 µM) was found to be 0.805; with Salubrinal + Linsitinib (first compound 0.8 µM), 0.606; in the experiment with Salubrinal + Linsitinib (first compound 2.53 µM), 0.482; with Salubrinal + Linsitinib (first compound 8 µM), 0.457.

As to NCI-H1793, the relative viability stood at 0.577 in experiment [1] (first compound 0.04 µM); 0.168 in experiment [1] (first compound 0.1265 µM); 0.182 in experiment [1] (first compound 0.4 µM); 0.181 in experiment [1] (first compound 1.265 µM); 0.215 in experiment [1] (first compound 4 µM); 0.435 in experiment [2] (first compound 0.04 µM). Further, the relative viability was 0.422 in experiment [2] (first compound 0.1265 µM); 0.272 in experiment [2] (first compound 0.4 µM); 0.324 in experiment [2] (first compound 1.265 µM); 0.32 in experiment [2] (first compound 4 µM); 0.32 in experiment [3] (first compound 0.04 µM); 0.5 in experiment [3] (first compound 0.1265 µM). Moreover, the relative viability in experiment [3] (first compound 0.4 µM) turned out to be 0.439; in experiment [3] (first compound 1.265 µM) it was 0.383; in experiment [3] (first compound 4 µM), 0.453; with Salubrinal + Linsitinib (first compound 0.08 µM), 1.1; in the experiment with Salubrinal + Linsitinib (first compound 0.253 µM), 0.798; in the experiment with Salubrinal + Linsitinib (first compound 0.8 µM) it was 1.04. Also, the relative viability in the experiment with Salubrinal + Linsitinib (first compound 2.53 µM) was 0.795; in the experiment with Salubrinal + Linsitinib (first compound 8 µM), 0.636.

Take NCI-H1915: the relative viability is 0.721 in experiment [1] (first compound 0.04 µM); 0.783 in experiment [1] (first compound 0.1265 µM); 0.598 in experiment [1] (first compound 1.265 µM); 0.636 in experiment [1] (first compound 4 µM); 0.359 in experiment [2] (first compound 0.04 µM); 0.384 in experiment [2] (first compound 0.1265 µM). Further, the relative viability in experiment [2] (first compound 1.265 µM) stood at 0.377; in experiment [2] (first compound 4 µM), 0.359; in experiment [3] (first compound 0.04 µM), 0.265; in experiment [3] (first compound 0.1265 µM), 0.248; in experiment [3] (first compound 0.4 µM), 0.267; in experiment [3] (first compound 1.265 µM), 0.253. Besides, the relative viability worked out at 0.238 in experiment [3] (first compound 4 µM); 1.02 with Salubrinal + Linsitinib (first compound 0.08 µM); 1.06 with Salubrinal + Linsitinib (first compound 0.253 µM); 1.16 with Salubrinal + Linsitinib (first compound 0.8 µM); 1.1 in the experiment with Salubrinal + Linsitinib (first compound 2.53 µM); 1.13 in the experiment with Salubrinal + Linsitinib (first compound 8 µM).
